Measured values: the supplement of paper PMC10307832

How the values were obtained:
Assay in all cases: relative viability (nuclei count vs DMSO), 5 days (fraction); higher = more cells survive
[1] = compound: C1COCCN1C2=NC(=NC3=C2OC4=C3C=CC=N4)C5=CC(=CC=C5)NC(=O)C6=CN=C(C=C6)N + COc1cccc2cc(-c3nc([C@H]4CC[C@H](C(=O)O)CC4)n4ncnc(N)c34)[nH]c12 [OSI-027] (partner 0.5 µM)
In short: (§1)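 Cells from lung cancer lines were seeded into 1536-well plates and, one day later, dosed by pin tool. Treatments were either a single drug or a fixed dose of an anchor drug with five library-drug doses (not always all listed) in √10 steps. After 5 days, nuclei were stained in a one-step fixation (final 0.05% Triton X-100, 1% formaldehyde, 1 ug/ml Hoechst) and counted on 4× images, and relative viability is the treated-to-vehicle nuclei ratio, as the median of duplicate plates.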

[2] = compound: CN1CCC(CNc2ccc3ncc(-c4cccc(OC(F)(F)F)c4)n3n2)CC1 [SGI-1776] + NC(=O)Nc1cc(-c2cccc(F)c2)sc1C(=O)N[C@H]1CCCNC1 [AZD7762] (partner 0.2 µM)
In short: as §1

[3] = compound: Nc1ccccc1NC(=O)c1ccc(CNC(=O)OCc2cccnc2)cc1 [Entinostat] + COc1cccc2cc(-c3nc([C@H]4CC[C@H](C(=O)O)CC4)n4ncnc(N)c34)[nH]c12 [OSI-027] (partner 0.5 µM)
In short: as §1

[4] = compound: Nc1ccccc1NC(=O)c1ccc(CNC(=O)OCc2cccnc2)cc1 [Entinostat] + N=C(N)NC(=N)NCCc1ccccc1 [Phenformin] (partner 250 µM)
In short: as §1

Cell Line	relative viability ([1]; first compound 0.02 µM)	relative viability ([1]; first compound 0.06325 µM)	relative viability ([1]; first compound 0.2 µM)	relative viability ([1]; first compound 0.6325 µM)	relative viability ([1]; first compound 2 µM)	relative viability ([2]; first compound 0.08 µM)	relative viability ([2]; first compound 0.8 µM)	relative viability ([2]; first compound 2.53 µM)	relative viability ([2]; first compound 8 µM)	relative viability ([3]; first compound 0.02 µM)	relative viability ([3]; first compound 0.06325 µM)	relative viability ([3]; first compound 0.2 µM)	relative viability ([3]; first compound 0.6325 µM)	relative viability ([3]; first compound 2 µM)	relative viability ([4]; first compound 0.02 µM)	relative viability ([4]; first compound 0.06325 µM)	relative viability ([4]; first compound 0.2 µM)	relative viability ([4]; first compound 0.6325 µM)	relative viability ([4]; first compound 2 µM)
NCI-H2347	0.384	0.504	0.367	0.355	0.311	0.825	0.912	0.81	0.692	0.292	0.284	0.175	0.217	0.153	0.378	0.243	0.234	0.181	0.151
NCI-H1915	0.639	0.663	0.647	0.599	0.5	0.756	0.663	0.705	0.791	0.594	0.605	0.58	0.283	0.222	0.375	0.346	0.372	0.261	0.256
NCI-H647	0.572	0.722	0.748	0.442	0.306	0.479	0.49	0.414	0.319	0.677	0.537	0.562	0.302	0.179	0.54	0.555	0.405	0.158	0.0748
HCC-366	0.82	1.04	0.68	0.537	0.352	0.248	0.263	0.298	0.26	0.922	0.972	0.854	0.214	0.0783	0.578	0.61	0.582	0.451	0.186
NCI-H2087	0.508	0.508	0.47	0.472	0.267	1.29	1.36	1.44	1.27	0.666	0.509	0.376	0.27	0.213	0.425	0.474	0.416	0.319	0.168
NCI-H522	0.75	0.732	0.714	0.687	0.721	0.819	0.747	0.789	0.613	0.84	0.764	0.85	0.688	0.555	0.69	0.572	0.695	0.801	0.577
PC-3 [JPC-3]	0.849	0.839	0.697	0.704	0.54	0.921	0.872	0.685	0.609	0.761	0.745	0.57	0.432	0.306	0.449	0.482	0.523	0.449	0.448
HOP-62	0.947	0.938	0.713	0.748	0.481	0.84	0.574	0.613	0.646	0.801	0.882	0.85	0.49	0.248	0.614	0.6	0.773	0.412	0.266
NCI-H2126	0.664	0.767	0.652	0.675	0.708	1	0.98	1.02	0.959	0.725	0.699	0.712	0.402	0.308	0.53	0.512	0.535	0.452	0.363
NCI-H1793	0.253	0.301	0.251	0.177	0.233	0.558	0.408	0.32	0.252	0.291	0.316	0.285	0.2	0.204	0.439	0.4	0.368	0.302	0.316
RERF-LC-KJ	0.558	0.594	0.558	0.458	0.462	0.912	1.08	0.831	0.828	0.582	0.591	0.6	0.326	0.264	0.433	0.437	0.422	0.339	0.312
H3255	0.626	0.56	0.464	0.465	0.552	1.05	0.899	0.939	0.728	0.589	0.582	0.503	0.309	0.232	0.378	0.376	0.272	0.316	0.267
EMC-BAC-2	0.346	0.406	0.333	0.346	0.32	1.12	1.16	1.09	0.928	0.376	0.423	0.368	0.305	0.256	0.523	0.533	0.449	0.416	0.293
SW 900	0.759	0.492	0.43	0.467	0.357	0.852	0.745	0.676	0.568	0.696	0.659	0.647	0.319	0.397	0.653	0.759	0.686	0.369	0.306
CAL-12T	0.579	0.583	0.446	0.477	0.323	0.739	0.667	0.567	0.654	0.583	0.719	0.698	0.601	0.305	0.649	0.581	0.593	0.523	0.325
NCI-H1437	0.816	0.844	0.791	0.6	0.535	1.11	1.13	1.07	1.02	0.786	0.581	0.306	0.218	0.203	0.288	0.261	0.199	0.197	0.215
PC-14	0.976	1.2	0.977	0.554	0.233	0.474	0.352	0.27	0.146	0.814	0.829	0.779	0.235	0.0869	0.761	0.61	0.662	0.309	0.076
